# pKi: −log10 of the molar value.
# Target: T1, human vascular endothelial growth factor receptor 2 (VEGF-R2) (Homo sapiens, UniProt P35968, DEL940-989/E990V)
# T1 construct: VEGF-R2D50 contains residues 806-939 and 990-1171; made in house; host or cells: baculovirus/insect cell system
# Assay: VEGF-R2 coupled spectrophotometric assay (FLVK, unphosphorylated VEGF-R2D50)
# Format: biochemical
# Settings: unphosphorylated VEGF-R2D50 (FLVK)
# From the text: This construct determines the ability of a test compound to inhibit tyrosine kinase activity. A construct (VEGF-R2D50) of the cytosolic domain of human vascular endothelial growth factor receptor 2 (VEGF-R2) lacking the 50 central residues of the 68 residues of the kinase insert domain was expressed in a baculovirus/insect cell system. Of the 1356 residues of full-length VEGF-R2, VEGF-R2D50 contains residues 806-939 and 990-1171, and also one point mutation (E990V) within the kinase insert domain relative to wild-type VEGF-R2. Autophosphorylation of the purified construct was performed by incubation of the enzyme at a concentration of […] in the presence of 3 mM ATP and 40 mM MgCl2 in 100 mM HEPES, pH 7.5, containing 5% glycerol and 5 mM DTT, at 4° C. for 2 h. […] See Parast et al., Biochemistry, 37, 16788-16801 (1998).
# VEGF-R2 Assay: Coupled Spectrophotometric (FLVK-P) Assay
# The production of ADP from ATP that accompanies phosphoryl transfer was coupled to oxidation of NADH using phosphoenolpyruvate (PEP) and a system having pyruvate kinase (PK) and lactic dehydrogenase (LDH). The oxidation of NADH was monitored by following the decrease of absorbance at 340 nm (e340=6.22 cm^−1 mM^−1) using a Beckman DU 650 spectrophotometer. Assay conditions for phosphorylated VEGF-R2D50 (indicated as FLVK-P in the tables below) were the following: 1 mM PEP; […] NADH; 50 units of LDH/mL; 20 units of PK/mL; 5 mM DTT; 5.1 mM poly(E4Y1); 1 mM ATP; and 25 mM MgCl2 in 200 mM HEPES, pH 7.5. Assay conditions for unphosphorylated VEGF-R2D50 (indicated as FLVK in the tables) were the following: 1 mM PEP; […] NADH; 50 units of LDH/mL; 20 units of PK/mL; 5 mM DTT; 20 mM poly(E4Y1); 3 mM ATP; and 60 mM MgCl2 and 2 mM MnCl2 in 200 mM HEPES, pH 7.5. Assays were initiated with 5 to 40 nM of enzyme. K1 values were determined by measuring enzyme activity in the presence of varying concentrations of test compounds. The percent inhibition at 50 nM (% inhibition @ 50 nM) was determined by linear least-squares regression analysis of absorbance as a function of time. The binding inhibitions were fitted to equation as described by Morrison. The data were analyzed using Enzyme Kinetic and Kaleidagraph software.
# T1 sequence (P35968 with tags, fused parts or gaps DEL940-989/E990V limits assumed): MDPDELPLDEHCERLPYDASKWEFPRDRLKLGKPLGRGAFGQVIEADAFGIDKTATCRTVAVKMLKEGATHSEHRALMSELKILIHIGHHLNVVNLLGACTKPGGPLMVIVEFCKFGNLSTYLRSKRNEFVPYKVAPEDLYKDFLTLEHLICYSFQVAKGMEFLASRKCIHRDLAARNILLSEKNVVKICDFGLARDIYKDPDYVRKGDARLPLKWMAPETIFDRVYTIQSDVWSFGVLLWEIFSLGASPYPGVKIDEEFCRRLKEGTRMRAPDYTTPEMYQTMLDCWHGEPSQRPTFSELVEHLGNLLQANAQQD
row,pKi,Structure (SMILES)
1,8.00 to 9.00,"CNC(=O)c1c(C)oc2cc(Oc3ccnc4cc(C(=O)N5CCC[C@H]5COC)ccc34)ccc12 [Example 15, 6-[(7-([(2S)-2-(methoxymethyl)pyrrolidin-1-yl]carbonyl}quinolin-4-yl)oxy]-N,2-dimethyl-1-benzofuran-3-carboxamide]"
2,< 8.00,"CNC(=O)c1c(C)n(C)c2cc(Oc3ccnc4cc(OCCN5CCCCC5)ccc34)ccc12 [Example 79, N,1,2-trimethyl-6-{[7-(2-piperidin-1-ylethoxy)quinolin-4-yl]oxy}-1H-indole-3-carboxamide]"
3,< 8.00,"CNC(=O)c1c(C)n(C)c2cc(Oc3ccnc4cc(OCCN5CCCC5)ccc34)ccc12 [Example 78, N,1,2-trimethyl-6-{[7-(2-pyrrolidin-1-ylethoxy)quinolin-4-yl]oxy}-1H-indole-3-carboxamide]"
4,> 9.00,"CCN(CC)CCOc1ccc2c(Oc3ccc4c(C(=O)NC5CC5)c(C)oc4c3)ccnc2c1 [Example 91, N-cyclopropyl-2-methyl-6-({7-[2-(diethylamino)ethoxy]quinolin-4-yl}oxy)-1-benzofuran-3-carboxamide]"
5,< 8.00,"CNC(=O)c1c(C)sc2cc(Oc3ccnc4cc(Br)ccc34)ccc12 [Example 20, 6-[(7-bromoquinolin-4-yl)oxy]-N,2-dimethy-1-benzothiophene-3-carboxamide]"
6,> 9.00,"Cc1oc2cc(Oc3ccnc4cc(OCCNC(C)C)ccc34)ccc2c1C(=O)NC1CC1 [Example 95, N-cyclopropyl-6-({7-[2-(isopropylamino)ethoxy]quinolin-4-yl}oxy)-2-methyl-1-benzofuran-3-carboxamide]"
7,< 8.00,"CNC(=O)n1c(C)cc2cc(Nc3ccnc4cc(-c5cccnc5)ccc34)ccc21 [Example 12, N,2-dimethyl-5-[(7-pyridin-3-ylquinolin-4-yl)amino]-1H-indole-1-carboxamide]"
8,> 9.00,"Cc1oc2cc(Oc3ccnc4cc(OCCNC5CC5)ccc34)ccc2c1C(=O)NC1CC1 [Example 96, N-cyclopropyl-6-({7-[2-(cyclopropylamino)ethoxy]quinolin-4-yl}oxy)-2-methyl-1-benzofuran-3-carboxamide]"
9,> 9.00,Cc1oc2cc(Oc3ccnc4cc(OCCNC(C)(C)C)ccc34)ccc2c1C(=O)NC1CC1 [Example 98]
10,< 8.00,"COc1ccc2c(Oc3ccc4c(C(=O)NCCC(C)O)c(C)sc4c3)ccnc2c1 (stereo not shown) [Example 82, N-(3-hydroxybutyl)-6-[(7-methoxyquinolin-4-yl)oxy]-2-methyl-1-benzothiophene-3-carboxamide]"
11,< 8.00,"CCCNC(=O)c1c(C)sc2cc(Oc3ccnc4cc(O)ccc34)ccc12 [Example 55, 6-[(7-hydroxyquinolin-4-yl)oxy]-2-methyl-N-propyl-1-benzothiophene-3-carboxamide]"
12,< 8.00,"CNC(=O)c1c(C)sc2cc(Oc3ccnc4cc(C(F)(F)F)ccc34)ccc12 [Example 60, N,2-dimethyl-6-{[7-(trifluoromethyl)quinolin-4-yl]oxy}-1-benzothiophene-3-carboxamide]"
13,8.00 to 9.00,"COc1ccc2c(Oc3ccc4c(C(=O)NC(C)C)c(C)sc4c3)ccnc2c1 [Example 71, N-isopropyl-6-[(7-methoxyquinolin-4-yl)oxy]-2-methyl-1-benzothiophene-3-carboxamide]"
14,< 8.00,"CNC(=O)c1c(C)sc2cc(Oc3ccnc4cc(C(=O)N5CCC[C@H]5COC)ccc34)ccc12 [Example 16, 6-[(7-{[(2S)-2-(methoxymethyl)pyrrolidin-1-yl]carbonyl)quinolin-4-yl)oxy]-N,2-dimethyl-1-benzothiophene-3-carboxamide]"
15,> 9.00,"CNCCOc1ccc2c(Oc3ccc4c(C(=O)NC5CC5)c(C)oc4c3)ccnc2c1 [Example 90, N-cyclopropyl-2-methyl-6-({7-[2-(methylamino)ethoxy]quinolin-4-yl}oxy)-1-benzofuran-3-carboxamide]"
16,< 8.00,"CNC(=O)c1c(C)sc2cc(Oc3ccnc4ccc(O)cc34)ccc12 [Example 27, 6-[(6-hydroxyquinolin-4-yl)oxy]-N,2-dimethyl-1-benzothiophene-3-carboxamide]"
17,> 9.00,"Cc1oc2cc(Oc3ccnc4cc(-c5ncccn5)ccc34)ccc2c1C(=O)NC1CC1 [Example 89, N-cyclopropyl-2-methyl-6-[(7-pyrimidin-2-ylquinolin-4-yl)oxy]-1-benzofuran-3-carboxamide]"

row,pKi,Structure (SMILES)
1,8.00 to 9.00,CNC(=O)c1c(C)oc2cc(Oc3ccnc4cc(OCc5ccccn5)ccc34)ccc12 [Example 33]
2,< 8.00,"CNC(=O)c1c(C)n(C)c2cc(Oc3ccnc4cc(OCCN5CCOCC5)ccc34)ccc12 [Example 77, N,1,2-trimethyl-6-{[7-(2-morpholin-4-ylethoxy)quinolin-4-yl]oxy}-1H-indole-3-carboxamide]"
3,> 9.00,"CCN1CCN(CCOc2ccc3c(Oc4ccc5c(C(=O)NC6CC6)c(C)oc5c4)ccnc3c2)CC1 [Example 94, N-cyclopropyl-2-methyl-6-{7-[2-(4-ethyl-piperazin-1-yl)-ethoxy]quinolin-4-yloxy}-1-benzofuran-3-carboxamide]"
4,8.00 to 9.00,"CNC(=O)c1c(C)oc2cc(Oc3ccnc4ccc(-c5ccncc5)cc34)ccc12 [Example 24, N,2-dimethyl-6-[(6-pyridin-4-ylquinolin-4-yl)oxy]-1-benzofuran-3-carboxamide]"
5,> 9.00,"CNC(=O)c1c(C)oc2cc(Oc3ccnc4cc(-c5ccncc5)ccc34)ccc12 [Example 7, N-2-dimethyl-6-[(7-pyridin-4-ylquinolin-4-yl)oxy]-1-benzofuran-3-carboxamide]"
6,< 8.00,"Cc1sc2cc(Oc3ccnc4cc(O)ccc34)ccc2c1C(=O)NC1CCCC1 [Example 56, N-cyclopentyl-6-[(7-hydroxyquinolin-4-yl)oxy]-2-methyl-1-benzothiophene-3-carboxamide]"
7,> 9.00,"CNC(=O)c1c(C)oc2cc(Oc3ccnc4cc(OCC5OCCO5)ccc34)ccc12 [Example 83, 6-{[7-(1,3-dioxolan-2-ylmethoxy)quinolin-4-yl]oxy}-N,2-dimethyl-1-benzofuran-3-carboxamide]"
8,> 9.00,CNC(=O)c1c(C)oc2cc(Oc3ccnc4cc(-c5nccs5)ccc34)ccc12 [Example 30]
9,< 8.00,"COc1ccc2c(Oc3ccc4c(C(=O)NCC(C)O)c(C)sc4c3)ccnc2c1 (stereo not shown) [Example 80, N(2-hydroxypropyl)-6-[(7-methoxyquinolin-4-yl)oxy]-2-methyl-1-benzothiophene3-carboxamide]"
10,< 8.00,"CNC(=O)c1c(C)sc2cc(Oc3ccnc4ccc(-c5ccncc5)cc34)ccc12 [Example 23, N,2-dimethyl-6-[(6-pyridin-4-ylquinolin-4-yl)oxy]-1-benzothiophene-3-carboxamide]"
11,> 9.00,"Cc1oc2cc(Oc3ccnc4cc(OCCBr)ccc34)ccc2c1C(=O)NC1CC1 [Example 93, 6-{[7-(2-bromoethoxy)quinolin-4-yl]oxy}-N-cyclopropyl-2-methyl-1-benzofuran-3-carboxamide]"
12,< 8.00,"COCC(C)NC(=O)c1c(C)oc2cc(Oc3ccnc4cc(OC)ccc34)ccc12 (stereo not shown) [Example 87, 6-[(7-methoxyquinolin-4-yl)oxy]-2-methyl-N-[2-methoxy-1-methyl-ethyl]-1-benzofuran-3-carboxamide]"
13,> 9.00,"Cc1oc2cc(Oc3ccnc4cc(OCCO)ccc34)ccc2c1C(=O)NC1CC1 [Example 92, N-cyclopropyl-2-methyl-6-({7-[2-hydroxy-ethoxy]quinolin-4-yl}oxy)-1-benzofuran-3-carboxamide]"
14,< 8.00,"CNC(=O)c1c(C)sc2cc(Oc3ccnc4cc(-c5ncccn5)ccc34)ccc12 [Example 18, N,2-dimethyl-6-[(7-pyrimidin-2-ylquinolin-4-yl)oxy]-1-benzothiophene-3-carboxamide]"
15,< 8.00,"Cc1sc2cc(Oc3ccnc4cc(O)ccc34)ccc2c1C(=O)NCCN(C)C [Example 57, N-[2-(dimethylamino)ethyl]-6-[(7-hydroxyquinolin-4-yl)oxy]-2-methyl-1-benzothiophene-3-carboxamide]"
16,< 8.00,"COc1ccc2c(Oc3ccc4c(C(=O)NC[C@@H]5CCCO5)c(C)oc4c3)ccnc2c1 [Example 85, 6-[(7-methoxyquinolin-4-yl)oxy]-2-methyl-N-[(2S)-tetrahydrofuran-2-ylmethyl]-1-benzofuran-3-carboxamide]"
17,< 8.00,"CNC(=O)c1c(C)oc2cc(Oc3ccnc4cc(C(F)(F)F)ccc34)ccc12 [Example 61, N,2-dimethyl-6-{[7-(trifluoromethyl)quinolin-4-yl]oxy}-1-benzofuran-3-carboxamide]"

# Reference: patent US7381824B2 (Agouron Pharmaceuticals, Inc., priority 2003, dated 2008)
